Results taken from US9274116B2, “Drug selection for breast cancer therapy using antibody-based arrays” (NESTEC S.A., priority 2008, dated 2016).
Blank lines part the entries; values can stand above or below the compound they belong to.

Tests used:
[1] = test system: Ki67; assay: Tumor cell pathway profile: Ki67; format: in vivo, human; conditions: tumor cells on re-biopsy
Experimental: (§1) The incubation was for 2 hours at room temperature. • 5) Alternatively, the detection step utilized a biotin-conjugate of the monoclonal antibody recognizing phosphorylated EGFR. In these instances, after six washes an additional sequential step of incubation with streptavidin-HRP for 1 hour was included. • 6) Alternatively, the detection step utilized an oligonucleotide-mediated glucose oxidase (GO) conjugate of the anti-EGFR antibody.
(§2) The exemplary patient profiles shown below in Tables 4-22 illustrate how an analysis of the pathways active in circulating tumor cells (CTCs) from blood or cancer cells obtained from a needle biopsy can be used to help physicians decide upon an effective course of treatment for a breast tumor, e.g., neoadjuvant treatment prior to surgery to reduce the size of the breast tumor or treatment in patients with locally recurrent or metastatic breast cancer. In brief, the activation levels of different components of the ErbB and nuclear hormone receptor pathways in CTCs or biopsy-derived cancer cells can be determined in the presence or absence of different combinations of test therapeutic agents.

[2] = test system: Rsk; assay: Tumor cell pathway profile: Rsk; format: in vivo, human; conditions: tumor cells on re-biopsy
Experimental: as §1
(§3) In brief, the activation levels of different components of the ErbB and nuclear hormone receptor pathways in CTCs or biopsy-derived cancer cells can be determined in the presence or absence of different combinations of test therapeutic agents.

[3] = test system: Progesterone Receptor; assay: Tumor cell pathway profile: Progesterone Receptor; format: in vivo, human; conditions: tumor cells on re-biopsy
Experimental: as §1, §2

[4] = test system: Shc; assay: Tumor cell pathway profile: Shc; format: in vivo, human; conditions: tumor cells on re-biopsy
Experimental: as §1, §2

[5] = test system: Erk; assay: Tumor cell pathway profile: Erk; format: in vivo, human; conditions: tumor cells on re-biopsy
Experimental: as §1, §3

[6] = biological target: T1, ER:AIB1 Complex (Homo sapiens, UniProt P03372); assay: Tumor cell pathway profile: ER:AIB1 complex; format: in vivo; conditions: Patient 4008 (High AIB1; ER+/PR+/ErbB2−), tumor cells on re-biopsy
T1 construct: pathways active in circulating tumor cells (CTCs) from blood or cancer cells obtained from a needle biopsy; endogenous in cells; host or cells: patient's circulating tumour cells or biopsy-derived breast cancer cells
Experimental: as §1, §3

[7] = test system: PI3K; assay: Tumor cell pathway profile: PI3K; format: in vivo, human; conditions: tumor cells on re-biopsy
Experimental: as §1, §3

[8] = biological target: T2, ErbB1 (Homo sapiens, UniProt P00533); assay: Tumor cell pathway profile: ErbB1; format: in vivo; conditions: Patient 4008 (High AIB1; ER+/PR+/ErbB2−), tumor cells on re-biopsy
T2 construct: pathways active in circulating tumor cells (CTCs) from blood or cancer cells obtained from a needle biopsy; endogenous in cells; host or cells: patient's circulating tumour cells or biopsy-derived breast cancer cells
Experimental: as §1, §3

[9] = test system: ErbB3; assay: Tumor cell pathway profile: ErbB3; format: in vivo, human; conditions: tumor cells on re-biopsy
Experimental: as §1, §2

[10] = test system: Akt; assay: Tumor cell pathway profile: Akt; format: in vivo, human; conditions: tumor cells on re-biopsy
Experimental: as §1, §3

[11] = biological target: T3, ER (Ser 167) (Homo sapiens, UniProt P03372); assay: Tumor cell pathway profile: ER (Ser 167) phosphorylation; format: in vivo; conditions: Patient 4008 (High AIB1; ER+/PR+/ErbB2−), tumor cells on re-biopsy
T3 construct: pathways active in circulating tumor cells (CTCs) from blood or cancer cells obtained from a needle biopsy; endogenous in cells; host or cells: patient's circulating tumour cells or biopsy-derived breast cancer cells
Experimental: as §1, §3

[12] = test system: P70S6K; assay: Tumor cell pathway profile: P70S6K; format: in vivo, human; conditions: tumor cells on re-biopsy
Experimental: as §1, §3

[13] = biological target: T4, ER (Homo sapiens, UniProt P03372); assay: Tumor cell (CTC/biopsy) pathway profile on antibody array: ER expression; format: in vivo; conditions: Patient 4008 (High AIB1; ER+/PR+/ErbB2−), tumor cells on re-biopsy
T4 construct: pathways active in circulating tumor cells (CTCs) from blood or cancer cells obtained from a needle biopsy; endogenous in cells; host or cells: patient's circulating tumour cells or biopsy-derived breast cancer cells
Experimental: as §1, §3

[14] = biological target: T5, ER:N-CoR Complex (Homo sapiens, UniProt P03372); assay: Tumor cell pathway profile: ER:N-CoR complex; format: in vivo; conditions: Patient 4008 (High AIB1; ER+/PR+/ErbB2−), tumor cells on re-biopsy
T5 construct: pathways active in circulating tumor cells (CTCs) from blood or cancer cells obtained from a needle biopsy; endogenous in cells; host or cells: patient's circulating tumour cells or biopsy-derived breast cancer cells
Experimental: as §1, §3

[15] = test system: IGF-1R; assay: Tumor cell pathway profile: IGF-1R; format: in vivo, human; conditions: tumor cells on re-biopsy
Experimental: as §1, §3

[16] = biological target: T6, ErbB4 (Homo sapiens, UniProt Q15303); assay: Tumor cell pathway profile: ErbB4; format: in vivo; conditions: tumor cells on re-biopsy
T6 construct: pathways active in circulating tumor cells (CTCs) from blood or cancer cells obtained from a needle biopsy; endogenous in cells; host or cells: patient's circulating tumour cells or biopsy-derived breast cancer cells
Experimental: as §1, §3

[17] = test system: breast tumor; assay: Response of breast cancer patient to therapy selected from pathway profile; format: in vivo, human
Excerpt: as §2
In brief, the activation levels of different components of signal transduction pathways such as the ErbB receptor pathways in CTCs or biopsy-derived cancer cells can be determined in the presence or absence of different combinations of test therapeutic agents.

[18] = biological target: T7, ER (Ser 118) (Homo sapiens, UniProt P03372); assay: Tumor cell pathway profile: ER (Ser 118) phosphorylation; format: in vivo; conditions: Patient 4008 (High AIB1; ER+/PR+/ErbB2−), tumor cells on re-biopsy
T7 construct: pathways active in circulating tumor cells (CTCs) from blood or cancer cells obtained from a needle biopsy; endogenous in cells; host or cells: patient's circulating tumour cells or biopsy-derived breast cancer cells
Experimental: as §1, §3

[19] = biological target: T8, ErbB2 (Homo sapiens, UniProt P04626); assay: Tumor cell pathway profile: ErbB2; format: in vivo; conditions: tumor cells on re-biopsy
T8 construct: pathways active in circulating tumor cells (CTCs) from blood or cancer cells obtained from a needle biopsy; endogenous in cells; host or cells: patient's circulating tumour cells or biopsy-derived breast cancer cells
Experimental: as §1, §3

[20] = test system: PTEN; assay: Tumor cell pathway profile: PTEN; format: in vivo, human; conditions: Patient 4001 (ER+/PR+/ErbB2−), tumor cells on re-biopsy
Experimental: as §1, §2

[21] = test system: TOPO II; assay: Tumor cell pathway profile: TOPO II; format: in vivo, human; conditions: Patient 4001 (ER+/PR+/ErbB2−), tumor cells on re-biopsy
Experimental: as §1, §2

[22] = test system: pHER-2; assay: Multiplexed proximity assay, per-cell RTK activation in cell lines: pHER-2; format: cell-based; conditions: for Per Cell-RTK Activation (RFU/cell) pHER2: stimulation with the ligand, calculated from number of cells required to detect EC20 (12000 RFU)
Experimental: SKBR3, MDA-MB-468, T47D, and BT474 cell lines were obtained from ATCC. Cells were grown in the following growth media in 100 mm tissue culture plates at 37° C. in 5% CO2: SKBR3—MacCoy's 5A medium with 10% FBS; MDA-MB-468—DMEM, 10% FBS; BT474—DMEM, 10% FBS; T47D—RPMI 1640, 10% FBS, 0.2 U/ml bovine insulin. Cells were harvested at 70-80% confluency with gentle detachment process (trypsin treatment+subsequent inactivation) and were subsequently counted and washed with 1×PBS. […] Subsequently, stimulated cells were washed with 1×PBS and then were lysed and kept on ice for 30 min.
Capture antibodies were diluted in 1×PBS with detergent. A contact microarray printer (Genetix) was utilized to print on 16 pad nitrocellulose FAST slides (Whatman). The spot diameter was approximately 175 μm and printed slides were kept in a desiccated chamber at 4° C.
Slides were incubated with blocking buffer for 1 hr and then washed 3× with TBST buffer. Cell lysates were then added onto each pad for overnight incubation at room temperature (RT). Upon the completion of the primary binding, lysates were aspirated and then each pad was washed several times with TBST. Then, secondary detector antibodies (conjugated with GO or HRP) were added to each pad for 2 hr at RT. Unbound secondary detector antibodies were removed by washing with TBST, and signal amplification buffer containing glucose and biotinylated tyramide was added to each pad for 15 min. After removing excess biotinylated tyramide, Alexa-647 conjugated strepavidin was added for the signal detection.
Quantitation was performed using Perkin Elmer ScanArray Express software and the data obtained was corrected for local and global background intensities. A GenePixArray List (GAL) file was used to provide descriptive name and identifier information and was incorporated into the image analysis output file. Signals from triplicate spots were averaged and data were normalized to correct for pad to pad variability. A nonlinear regression model was used for the quantitation of cell-equivalent amount for corresponding relative fluorescence unit (RFU) values. The data were fit to a five parameter Hill equation to generate the standard curves. Each curve was validated against known controls. A known number of cells was predicted for the appropriate dilution, corresponding to the curve with the highest slope at the intensity of the unknown sample.
Analytical specificity of the collaborative immunoassay format described herein was >99.99% based on a comparative study performed on multiple cell lines with various RTK levels. […] The RTK activation profile for T47D cells, which express some level of ErbB2 and ErbB3 but an extremely low amount of ErbB1, is shown in FIG. 22. The number of cells required to detect EC20 (12000 RFU) pHER-1 or pHER-2 were used to calculate per-cell RTK activation (RFU/cell) as shown in Table 43. When MB468 cells expressing an extremely low amount of HER-2 were used, having ˜1000 cells per reaction pad was not sufficient to achieve EC20, and this type of low or non-detectable signal in other cell lines was indicated as “ND” in Table 43. […] This collaborative immunoassay format ensures ultra-specificity while maintaining its sub-single cell level (10^4 to 10^5) molecular level assay sensitivity.

[23] = test system: p95ErbB2; conditions: T47D cells, FIG. 17
Experimental: The slide is incubated for two hours at room temperature. • 4) After six washes with TBS-Tween, 80 μl of detection antibodies for the proximity assay diluted in TBS-Tween/2% BSA/1% FBS is added to the slides. The detection antibodies used are: (1) an anti-ErbB2 antibody specific for the intracellular domain of ErbB2 that is directly conjugated to glucose oxidase (GO); and (2) a monoclonal antibody recognizing phosphorylated ErbB2 that is directly conjugated to horseradish peroxidase (HRP). The incubation is for 2 hours at room temperature. • 5) For signal amplification, 80 μl of biotin-tyramide at 5 μg/ml is added and reacted for 15 minutes along with 50 mM glucose. The slide is washed six times with TBS-Tween, twice with 20% DMSO/TBS-Tween, and once with TBS. […] The slide is then washed twice, dried for 5 minutes, and scanned on a microarray scanner (Perkin-Elmer, Inc.). • 6) As a non-limiting example, slide 1 can report on total ErbB2 activation while slide 2 can report on truncated ErbB2 activation.
The slide is incubated for two hours at room temperature. • 4) After six washes with TBS-Tween, 80 μl of detection antibodies for the assay diluted in TBS-Tween/2% BSA/1% FBS is added to the slides. The detection antibody used is an anti-ErbB2 antibody specific for the intracellular domain of ErbB2 that is directly conjugated to HRP. […]

[24] = biological target: T9, pHER-1 (Homo sapiens, UniProt P00533); assay: Multiplexed proximity assay, per-cell RTK activation in cell lines: pHER-1; format: cell-based; conditions: stimulation with the ligand, calculated from number of cells required to detect EC20 (12000 RFU)
T9 construct: host or cells: SKBR3, MDA-MB-468, T47D, BT474
Experimental: Slides were incubated with blocking buffer for 1 hr and then washed 3× with TBST buffer. Cell lysates were then added onto each pad for overnight incubation at room temperature (RT). Upon the completion of the primary binding, lysates were aspirated and then each pad was washed several times with TBST. Then, secondary detector antibodies (conjugated with GO or HRP) were added to each pad for 2 hr at RT. […]
Quantitation was performed using Perkin Elmer ScanArray Express software and the data obtained was corrected for local and global background intensities. […] A nonlinear regression model was used for the quantitation of cell-equivalent amount for corresponding relative fluorescence unit (RFU) values. […]

[25] = Patient 4008 (High AIB1; ER+/PR+/ErbB2−)

T6 sequence (Q15303 26-1308): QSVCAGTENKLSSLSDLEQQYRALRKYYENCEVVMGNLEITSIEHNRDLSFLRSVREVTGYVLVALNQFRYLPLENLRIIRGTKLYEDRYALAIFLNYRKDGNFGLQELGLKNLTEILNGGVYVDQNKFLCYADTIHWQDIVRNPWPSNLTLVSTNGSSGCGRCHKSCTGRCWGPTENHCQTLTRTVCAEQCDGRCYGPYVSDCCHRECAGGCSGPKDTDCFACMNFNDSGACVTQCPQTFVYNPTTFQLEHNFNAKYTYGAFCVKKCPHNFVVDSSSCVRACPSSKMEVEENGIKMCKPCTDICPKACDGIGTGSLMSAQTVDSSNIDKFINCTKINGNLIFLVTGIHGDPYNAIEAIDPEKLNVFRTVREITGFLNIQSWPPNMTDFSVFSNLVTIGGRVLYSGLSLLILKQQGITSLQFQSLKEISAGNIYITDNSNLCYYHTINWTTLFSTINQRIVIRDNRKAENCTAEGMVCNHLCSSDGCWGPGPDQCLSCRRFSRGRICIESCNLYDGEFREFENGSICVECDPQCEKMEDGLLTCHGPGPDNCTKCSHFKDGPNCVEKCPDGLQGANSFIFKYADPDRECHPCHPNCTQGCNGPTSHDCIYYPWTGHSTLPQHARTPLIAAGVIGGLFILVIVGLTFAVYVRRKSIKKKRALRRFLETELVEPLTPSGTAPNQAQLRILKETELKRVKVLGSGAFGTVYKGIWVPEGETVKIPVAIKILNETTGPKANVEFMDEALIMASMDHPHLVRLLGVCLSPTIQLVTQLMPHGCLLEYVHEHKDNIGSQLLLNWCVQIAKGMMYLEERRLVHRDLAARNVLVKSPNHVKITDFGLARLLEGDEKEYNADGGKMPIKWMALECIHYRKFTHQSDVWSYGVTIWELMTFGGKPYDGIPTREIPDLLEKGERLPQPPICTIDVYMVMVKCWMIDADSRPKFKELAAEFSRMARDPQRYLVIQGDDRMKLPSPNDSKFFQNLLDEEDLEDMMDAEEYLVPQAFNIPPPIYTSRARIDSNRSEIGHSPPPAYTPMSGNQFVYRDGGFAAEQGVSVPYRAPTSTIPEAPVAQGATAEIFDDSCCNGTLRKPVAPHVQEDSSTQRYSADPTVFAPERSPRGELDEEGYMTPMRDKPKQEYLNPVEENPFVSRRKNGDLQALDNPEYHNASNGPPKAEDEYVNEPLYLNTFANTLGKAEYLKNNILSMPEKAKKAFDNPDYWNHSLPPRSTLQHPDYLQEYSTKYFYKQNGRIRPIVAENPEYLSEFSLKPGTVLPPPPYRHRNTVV
T8 sequence (P04626 23-1255): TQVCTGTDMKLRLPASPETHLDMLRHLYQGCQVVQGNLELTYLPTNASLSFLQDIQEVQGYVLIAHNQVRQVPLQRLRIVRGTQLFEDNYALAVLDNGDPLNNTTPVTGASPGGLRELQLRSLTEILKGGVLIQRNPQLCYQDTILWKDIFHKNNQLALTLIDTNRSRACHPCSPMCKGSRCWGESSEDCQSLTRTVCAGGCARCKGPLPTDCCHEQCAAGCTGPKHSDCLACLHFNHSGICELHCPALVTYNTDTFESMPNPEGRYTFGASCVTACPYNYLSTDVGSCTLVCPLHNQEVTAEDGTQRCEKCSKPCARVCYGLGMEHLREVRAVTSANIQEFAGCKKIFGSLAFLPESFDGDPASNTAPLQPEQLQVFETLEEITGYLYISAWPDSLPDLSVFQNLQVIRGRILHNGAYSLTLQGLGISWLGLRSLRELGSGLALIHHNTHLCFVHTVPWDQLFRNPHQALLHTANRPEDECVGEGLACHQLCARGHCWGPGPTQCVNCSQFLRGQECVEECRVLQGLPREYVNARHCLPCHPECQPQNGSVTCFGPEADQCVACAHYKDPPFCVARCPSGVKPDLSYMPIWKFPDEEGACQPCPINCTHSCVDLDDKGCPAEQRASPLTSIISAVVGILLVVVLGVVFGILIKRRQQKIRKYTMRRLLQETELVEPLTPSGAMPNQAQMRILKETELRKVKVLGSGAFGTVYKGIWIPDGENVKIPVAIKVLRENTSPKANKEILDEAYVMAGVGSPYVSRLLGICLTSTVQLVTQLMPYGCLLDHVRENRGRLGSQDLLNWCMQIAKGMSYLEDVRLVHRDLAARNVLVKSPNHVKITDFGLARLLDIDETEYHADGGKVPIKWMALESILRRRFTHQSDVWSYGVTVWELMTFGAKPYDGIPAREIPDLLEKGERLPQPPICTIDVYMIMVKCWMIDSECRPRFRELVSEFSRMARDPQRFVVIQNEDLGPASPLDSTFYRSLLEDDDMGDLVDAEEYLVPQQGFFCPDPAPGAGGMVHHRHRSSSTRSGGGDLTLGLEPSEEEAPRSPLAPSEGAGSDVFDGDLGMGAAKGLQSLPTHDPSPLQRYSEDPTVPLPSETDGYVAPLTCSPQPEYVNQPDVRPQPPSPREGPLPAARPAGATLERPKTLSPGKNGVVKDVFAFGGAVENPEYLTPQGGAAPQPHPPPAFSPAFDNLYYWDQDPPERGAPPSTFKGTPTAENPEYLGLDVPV
T4 sequence (P03372 whole entry): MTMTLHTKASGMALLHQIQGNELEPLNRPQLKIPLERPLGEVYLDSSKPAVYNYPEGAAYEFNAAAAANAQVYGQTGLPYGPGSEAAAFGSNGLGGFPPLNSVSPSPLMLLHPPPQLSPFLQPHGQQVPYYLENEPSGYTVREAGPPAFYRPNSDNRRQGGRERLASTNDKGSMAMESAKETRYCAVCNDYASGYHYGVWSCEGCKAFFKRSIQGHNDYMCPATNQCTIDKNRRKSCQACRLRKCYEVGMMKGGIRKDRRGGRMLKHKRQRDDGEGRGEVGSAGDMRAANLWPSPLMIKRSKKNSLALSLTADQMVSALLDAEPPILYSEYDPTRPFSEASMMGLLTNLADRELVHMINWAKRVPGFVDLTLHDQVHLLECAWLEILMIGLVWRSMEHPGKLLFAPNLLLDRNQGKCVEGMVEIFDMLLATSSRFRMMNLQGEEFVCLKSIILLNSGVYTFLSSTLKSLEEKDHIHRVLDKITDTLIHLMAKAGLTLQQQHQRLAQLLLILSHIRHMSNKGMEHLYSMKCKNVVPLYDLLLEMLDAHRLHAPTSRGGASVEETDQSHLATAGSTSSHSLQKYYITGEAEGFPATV
T1 sequence (P03372 whole entry, one chain of several): as the sequence (P03372 whole entry) above
T7 sequence (P03372 whole entry): as above
T3 sequence (P03372 whole entry): as above

ER: AIB1 Complex: Treatment with Fulvestrant [6]: Weak
ErbB1: Treatment with Fulvestrant [8]: Weak
ER (Ser 167): Treatment with Fulvestrant [11]: Weak
ER: Treatment with Fulvestrant [13]: Low
ER: N-CoR Complex: Treatment with Fulvestrant [14]: Weak
ErbB4: Treatment with Fulvestrant [16, 25]: Weak
ER (Ser 118): Treatment with Fulvestrant [18]: Weak
ErbB2: Treatment with Fulvestrant [19, 25]: Weak
Compound: C[C@]12CC[C@@H]3c4ccc(O)cc4C[C@@H](CCCCCCCCC[S+]([O-])CCCC(F)(F)C(F)(F)F)[C@H]3[C@@H]1CC[C@@H]2O (some centres unmarked) [Fulvestrant, fulvestrant]
Ki67: Treatment with Fulvestrant [1, 25]: Weak
Rsk: Treatment with Fulvestrant [2, 25]: Weak
Progesterone Receptor: Treatment with Fulvestrant [3, 25]: Low
Shc: Treatment with Fulvestrant [4, 25]: Weak
Erk: Treatment with Fulvestrant [5, 25]: Weak
PI3K: Treatment with Fulvestrant [7, 25]: Weak
ErbB3: Treatment with Fulvestrant [9, 25]: Weak
Akt: Treatment with Fulvestrant [10, 25]: Weak
P70S6K: Treatment with Fulvestrant [12, 25]: Weak
IGF-1R: Treatment with Fulvestrant [15, 25]: Weak
Patient response to treatment [17, 25]: responded

Compound: CC/C(=C(\c1ccccc1)c1ccc(OCCN(C)C)cc1)c1ccccc1 [Tamoxifen, tamoxifen]
Ki67: Treatment with Tamoxifen ([1]; Patient 4001 (ER+/PR+/ErbB2−)): Weak
Rsk: Treatment with Tamoxifen ([2]; Patient 4001 (ER+/PR+/ErbB2−)): Weak
Progesterone Receptor: Treatment with Tamoxifen ([3]; Patient 4001 (ER+/PR+/ErbB2−)): Medium
Shc: Treatment with Tamoxifen ([4]; Patient 4001 (ER+/PR+/ErbB2−)): Weak
PTEN: Treatment with Tamoxifen [20]: Medium
Erk: Treatment with Tamoxifen ([5]; Patient 4001 (ER+/PR+/ErbB2−)): Weak
PI3K: Treatment with Tamoxifen ([7]; Patient 4001 (ER+/PR+/ErbB2−)): Weak
ErbB3: Treatment with Tamoxifen ([9]; Patient 4001 (ER+/PR+/ErbB2−)): Weak
Akt: Treatment with Tamoxifen ([10]; Patient 4001 (ER+/PR+/ErbB2−)): Weak
P70S6K: Treatment with Tamoxifen ([12]; Patient 4001 (ER+/PR+/ErbB2−)): Weak
IGF-1R: Treatment with Tamoxifen ([15]; Patient 4001 (ER+/PR+/ErbB2−)): Weak
TOPO II: Treatment with Tamoxifen [21]: Medium
ErbB4: Treatment with Tamoxifen ([16]; Patient 4001 (ER+/PR+/ErbB2−)): Weak
Patient response to treatment ([17]; Patient 4001 (ER+/PR+/ErbB2−), premenopausal, node negative): responded
ErbB2: Treatment with Tamoxifen ([19]; Patient 4001 (ER+/PR+/ErbB2−)): Weak

Compound: EGF: epidermal growth factor, stimulatory growth factor
Per Cell-RTK Activation (RFU/cell) pHER2 ([22]; BT 474 cells): 1200 RFU/cell
pHER-2 ([22]; MDA MB 468 cells stimulated with EGF): do not show any detectable
Per Cell-RTK Activation (RFU/cell) pHER2 ([22]; SKBR3 cells): 1334 RFU/cell
Per Cell-RTK Activation (RFU/cell) pHER2 ([22]; T47D cells): 80 RFU/cell

Per Cell-RTK Activation (RFU/cell) pHER1 ([24]; MD AMB 468 cells): 4000 RFU/cell
Per Cell-RTK Activation (RFU/cell) pHER1 ([24]; SKBR3 cells): 105 RFU/cell
Compound: heregulin
p95ErbB2 phosphorylation [23]: increased
Per Cell-RTK Activation (RFU/cell) pHER2 ([22]; BT 474 cells): 1200 RFU/cell
Per Cell-RTK Activation (RFU/cell) pHER2 ([22]; SKBR3 cells): 353 RFU/cell
Per Cell-RTK Activation (RFU/cell) pHER2 ([22]; T47D cells): 165 RFU/cell
